Experiments:
U87-Luc cells [1] = assay: Cytotoxicity of MFC/siRNA complexes (MTT); format: cell-based; conditions: siRNA complexes, 100 nM siRNA
Procedure: Cytotoxicity of MFC/siRNA complexes. U87-luc cells were incubated with MFC/siRNA complexes of different carriers according to the protocol described above. MTT in PBS (5 mg/mL, 25 μL) was added to each well after incubation and cells were incubated for another 2 hours. After cell culture medium was removed, 200 μL DMSO was added to each well and cells were incubated at 37° C. for 5 min. The optical absorption was measured at 570 nm using a micro-plate reader (Model 550, Bio-Rad Lab. Hercules, Calif.). The relative cell viability was calculated with the equation ([Abs]sample-[Abs]blank)/([Abs]control-[Abs]blank)×100%.

U87-Luc cells [2] = assay: Luciferase gene silencing with anti-luciferase siRNA in U87-Luc cells; format: cell-based
Procedure: THCO-mediated delivery of siRNA targeting a luciferase reporter gene. U87-Luc cells were seeded 24 hours prior to transfection into a 96-well plate at a density of 5000 cells/well. At the time of siRNA transfection, the medium in each well was replaced with fresh serum-free medium. 20 nM anti-luciferase siRNA or non-specific siRNA was complexed with THCO or Transfast™ or DOTAP and incubated for 30 min before use. The transfection by Transfast or DOTAP was performed according to the manufacture's instruction. Complexes were incubated with the cells for 4 hours at 37° C. The medium was then replaced with 100 μL of fresh complete medium and cells were incubated for additional 44 hours. All the transfection tests were performed in triplicate wells. After the incubation, cells were washed with pre-warmed PBS and treated with 200 μL cell lysis buffer and then subjected to a freezing-thawing cycle. Cellular debris was removed by centrifugation at 14,000 g for 5 minutes. The luciferase activity in cell lysate (20 μL) was measured using a luciferase assay kit (100 μL luciferase assay buffer) on a luminometer for 10 seconds (Lumat 9605, EG&G Wallac). The gene silencing efficiency was normalized against the luciferase expression of untreated cells. The siRNA delivery efficiency was also similarly evaluated in 10% FBS medium.
G. In vitro delivery of nucleic acids by MFCs MFC-mediated in vitro gene silencing with siRNA. U87-luc cells with constitutive expression of firefly luciferase were maintained in minimal essential medium (ATCC) containing 10% FBS, G418 (300 μg/mL), streptomycin (100 μg/mL) and penicillin (100 units/mL). U87-Luc cells were seeded 24 hours prior to transfection into a 96-well plate at a density of 5000 cells/well. At the time of siRNA transfection, the medium in each well was replaced with fresh serum-free medium. Anti-luciferase siRNA was complexed with the MFC, TransFast or DOTAP and incubated for 30 min before use. Complexes were incubated with the cells for 4 hours at 37° C. The medium was then replaced with 100 μL of fresh complete medium and cells were incubated for an additional 44 hours. The cells were then washed with pre-warmed PBS, treated with 200 μL cell lysis buffer and subjected to a freezing-thawing cycle. Cellular debris was removed by centrifugation at 14,000 g for 5 minutes. The luciferase activity in cell lysate (20 μL) was measured using a luciferase assay kit (100 μL luciferase assay buffer) on a luminometer for 10 seconds (Lumat 9605, EG&G Wallac). The gene silencing efficiency was normalized against the luciferase expression of untreated cells.

rat red blood cells = assay: Hemolysis assay at different pHs; format: cell-based; conditions: for hemolytic activity: 8.3 μM; for hemolysis: pH 7.4, 6.5 and 5.4 (all cases)
Procedure: Hemolysis assay. THCO (16.7 μM), DOTAP (16.7 μM) and Triton X-100 (1%, w/v) were dissolved in phosphate buffered saline (PBS) at a starting pH of 7.4, 6.5, or 5.4 as stock solutions. A rat was sacrificed and blood was obtained by cardiac puncture. Erythrocytes (RBC) were isolated by centrifugation at 1500 g for 10 min at 4° C. The cell pellet was resuspended into a 2% (w/v) RBC solution with prechilled PBS and then seeded (100 μL) into a 96-well plate. 100 μL of testing samples were added to RBC solutions and the plate was incubated for 1 h at 37° C. The absorbance of the supernatant from each sample was measured at 550 nm using a micro-plate reader.
Hemolysis assay. The assays were performed using the techniques described above. The pH sensitive amphiphilic cell membrane disruption of the MFCs was evaluated by hemolysis assay with rat red blood cells at different pHs. […] Generally, all MFCs had lower hemolytic activity at pH 7.4 than at pH 6.5 and 5.4.

[3] = Particle size of MFC/siRNA complexes by dynamic light scattering
Procedure: Particle Size Analysis. Samples were prepared by mixing 5.0 μg of plasmid DNA or siRNA with appropriate amount of materials in dust-free water and analyzed using a Brookhaven Instruments BI-200SM system equipped with a 5 mW helium neon laser with a wavelength output of 633 nm. The effective diameter and population distribution were computed from the diffusion coefficient using functions supplied by the instrument. Measurements were made at 25° C. at an angle of 90° and each sample was analyzed in triplicate.
Formation and size measurement of MFC/siRNA nanoparticles. MFC/siRNA nanoparticulate complexes were prepared and characterized using the techniques described above. The complexation of the polymerizable MFCs with siRNA and formation of nanoparticles of the complexes were investigated by dynamic light scattering. EHCO was first used to study the complexation with siRNA and the impact of N/P ratios on the complexation and formation of nanoparticles. […] The particle size of siRNA complexes with other polymerizable surfactants was measured at the N/P ratios of 8 and 10 based on the observation with EHCO.

U87-luc xenograft = assay: In vivo luciferase knockdown with anti-luc siRNA complexes, bioluminescence imaging; design: species or system mice; conditions: 50 μg anti-luciferase siRNA i.p.
Procedure: Animal tumor model. U87 cells with stably expression of luciferase were collected and resuspended with medium/matrigel mixture (v/v=l/l). 100 μL of cell suspension containing 2 million cells were injected subcutaneously in the right flanks of the mice.
Carriers. EHCO was selected for the study. DOTAP is a commercial available transfection agent that has been used to deliver siRNA in vivo and was used as a control carrier. siRNAs. Anti-Luciferase siRNA was used to knockdown luciferase expression in mice so as to noninvasively detect gene silencing efficiency by bioluminescence imaging. […] The sequence of antisense is 5′-[…]dTdT-3′ and that of sense is 3′-dTd[…]-5′. siRNA targeting HIF was provided Huntsman Cancer Institute, University of Utah. The sequence of antisense is 5′-[…]dTdT-3′ and that of sense is 3′-dTdT […]-5′.
Administration of Anti-Luc siRNA complexes and Luciferase mouse imaging. Bioluminescence imaging of mice were taken one day before the administration of the anti-luciferase complexes. […] Images were quantified using LivingImage software (Xenogen). […] The luminescence signal intensity on the day before the mice received the anti-luc complexes were set as 100% and the subsequent luciferase expression level in mice after siRNA treatments were normalized to the percentage relative to those at day 0.

U87 cells = assay: MTT cytotoxicity assay in U87 cells; format: cell-based; conditions: concentration of 250 μg/mL, 24 h
Procedure: In another study, U87 cells were seeded in a 96-well plate 24 h before the assay at a density of 10,000 cells/well. The cells were incubated with 200 μL of medium containing THCO at different concentrations and incubate for 24 h. Then 25 μL MTT solution in PBS was added and cells were incubated for another 2 hours. After removing media, 200 μL of DMSO was added to the wells and cells were incubated at 37° C. for 5 min. The optical densities were measured at 570 nm using a micro-plate reader (Model 550, Bio-Rad Lab. Hercules, Calif.). The relative cell viability was calculated as described above. […] The viability of U87 cells incubated with THCO was 79±8% at a concentration of 250 μg/mL as determined the MTT assay, slightly higher than that of DOTAP (72±4%) (FIG. 8).

Row | particle size of siRNA complexes (diameter) ([3]; N/P ratio of 0.5, incubated 30 minutes) | particle size of siRNA complexes ([3]; N/P ratio of 4) | particle size of siRNA complexes ([3]; N/P ratio of 6) | particle size of siRNA complexes (diameter) ([3]; N/P ratio of 8, dust free water) | particle size of siRNA complexes ([3]; N/P ratio of 10) [nm] | Compound | cell viability (U87-Luc cells [1]) [%] | luciferase silencing (transfection) efficiency (U87-Luc cells [2]; 20 nM siRNA, MFCs at N/P ratio of 10, FIG. 21b) [%] | knockdown of luciferase expression (U87-Luc cells [2]; 100 nM siRNA, MFCs at N/P ratio of 10, FIG. 21a) [%] | hemolytic activity (rat red blood cells; pH 6.5, PBS) | hemolytic activity (rat red blood cells; pH 7.4, PBS) | reduction of luciferase expression in the tumor (U87-luc xenograft; after two treatments) | viability of U87 cells (U87 cells) [%] | gene silencing efficiency (U87-Luc cells [2]; 20 nM siRNA, serum free medium, THCO N/P=8, FIG. 12) [%] | gene silencing efficiency (U87-Luc cells [2]; 20 nM siRNA, serum-free medium, THCO at N/P ratios from 4 to 16) [%] | hemolysis (rat red blood cells) | effect on luciferase expression in the tumor (U87-luc xenograft; two treatments)
1 | approximately 200 nm | about 3 μm | approximately 240 nm | approximately 200 nm | ~151 | CCCCCCCCC=CCCCCCCCC(=O)NC(CS)C(=O)NC(Cc1cnc[nH]1)C(=O)NCCNC(=O)CCN(CCN)CCC(=O)NCCNC(=O)C(Cc1cnc[nH]1)NC(=O)C(CS)NC(=O)CCCCCCCC=CCCCCCCCC (centres unmarked) [EHCO, (1-aminoethyl)imino-bis[N-(oleicyl-cysteinyl-histinyl-1-aminoethyl)propion-amide]] | 86.7±8.3 | 74.5±1.0 | 88.4±3.1 | negligible hemolysis | negligible hemolysis | more than 50% | – | – | – | – | –
2 | – | – | – | – | – | N-(2,3-dioleoyloxy-1-propyl)trimethylammonium methyl sulfate [DOTAP, reference compound] | – | – | – | – | – | – | 72±4 | 47.1±3.8 | 47 | Little hemolysis | did not have significant effect after the second treatment
3 | – | – | – | – | – | Triton X-100 [reference compound] | – | – | – | – | – | – | – | – | – | complete hemolysis | –
